Reference: ChEMBL document CHEMBL5726883, “Pyrazines as modulators of GPR6” (2019)

Target: G-protein coupled receptor 6 (Homo sapiens, UniProt P46095)
Assay: A.1 Inhibition of cAMP Activity of GPR6 In Vitro Assay: This cell based assay measures the ability of compounds to inhibit the constitutive cAMP activity of GPR6 receptor expressed in CHO-K1 cells. CHO cells were stably expressed with GPR6 receptor, whose expression is controlled by a tetracycline inducible element. The cells were cultured in medium containing F12K, 10% FBS, 1% Penn/Strep, 200 ug/mL Hygromycin. GPR6 receptor expression was induced for 20 hrs with 10 µg/ml doxycycline (sigma D9891) in growth media. After addition of doxycycline cells were plated at a density of 250-500 cells per well in half-volume black clear bottom plates (Costar) and place in an incubator (37°, 5% C(O)2) for 20 hours prior to cAMP assays.Culture media was removed from cells and they were washed with […] of Ringer's Buffer (MgCl2 0.047 mg/mL, NaH2PO4 0.18 mg/mL, Na2HPO4 0.1 mg/mL, KCl 0.34 mg/mL, NaHC(O)3 1.26 mg/mL, D-glucose 1.8 mg/mL, NaCl 7 mg/mL; pH=7.4). Compounds suspended in DMSO were diluted in Ringer's Buffer containing 0.5% fatty acid free BSA and incubated on cells for 45 min at 37° and 5% C(O)2. After incubation cells were incubated for 10 min at room temp with Eu-cAMP tracer solution from a Perkin Elmer Lance HTRF UltracAMP assay kit (TRF0264).

G-protein coupled receptor 6, sequence (P46095 whole entry): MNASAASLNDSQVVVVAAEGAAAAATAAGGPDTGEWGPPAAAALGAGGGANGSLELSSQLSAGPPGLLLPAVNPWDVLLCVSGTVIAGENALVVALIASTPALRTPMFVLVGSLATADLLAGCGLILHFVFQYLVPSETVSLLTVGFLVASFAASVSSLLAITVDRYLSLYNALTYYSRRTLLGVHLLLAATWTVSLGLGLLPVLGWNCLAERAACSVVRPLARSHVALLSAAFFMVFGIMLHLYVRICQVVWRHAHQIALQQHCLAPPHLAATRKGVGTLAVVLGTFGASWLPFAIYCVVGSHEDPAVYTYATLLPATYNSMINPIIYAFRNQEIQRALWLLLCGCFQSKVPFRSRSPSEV

With `CC(C)Nc1nc(COCCN(C)C)c(C#N)nc1N1CCN(Cc2ccc(F)cc2F)CC1` the EC50 was 62.5 µM.
